# Legend:
# Serum Cholesterol = experiment: Serum cholesterol in ovariectomized rat post-menopausal model; assay type: in vivo, Sprague Dawley rats; conditions: ovariectomized rats, dosed orally daily for 4 days; for ED50: Rattus norvegicus, po, 96 h
# Procedure: In the examples illustrating the methods, a post-menopausal model was used in which effects of different treatments upon circulating lipids were determined.
# Seventy-five day old female Sprague Dawley rats (weight range of 200 to 225 g) are obtained from Charles River Laboratories (Portage, Mich.). The animals are either bilaterally ovariectomized (OVX) or exposed to a Sham surgical procedure at Charles River Laboratories, and then shipped after one week. Upon arrival, they are housed in metal hanging cages in groups of 3 or 4 per cage and had ad libitum access to food (calcium content approximately 0.5%) and water for one week. Room temperature is maintained at 22.2°±1.7° C. with a minimum relative humidity of 40%. The photoperiod in the room was 12 hours light and 12 hours dark.
# Dosing Reaimen Tissue Collection. After a one week acclimation period (therefore, two weeks post-OVX) daily dosing with test compound is initiated. 17α-ethynyl estradiol or the test compound is given orally, unless otherwise stated, as a suspension in 1% carboxymethylcellulose or dissolved in 20% cyclodextrin. Animals are dosed daily for 4 days. Following the dosing regimen, animals are weighed and anesthetized with a ketamine: xylazine (2:1, V:V) mixture and a blood sample is collected by cardiac puncture. The animals are then sacrificed by asphyxiation with CO2, the uterus is removed through a midline incision, and a wet uterine weight is determined.
# Cholesterol Analysis. Blood samples are allowed to clot at room temperature for 2 hours, and serum is obtained following centrifugation for 10 minutes at 3000 rpm. Serum cholesterol is determined using a Boehringer Mannheim Diagnostics high performance cholesterol assay. Briefly the cholesterol is oxidized to cholest-4-en-3-one and hydrogen peroxide. The hydrogen peroxide is then reacted with phenol and 4-aminophenazone in the presence of peroxidase to produce a p-quinone imine dye, which is read spectrophotemetrically at 500 nm. Cholesterol concentration is then calculated against a standard curve. The entire assay is automated using a Biomek Automated Workstation.
# Data presented in Table 1 below show results when rats were treated with certain compounds of the present invention. The compounds of the present invention generally reduce serum cholesterol compared to the ovariectomized control animals.
# [1] = tested on: MCF-7 breast adenocarcinoma cells; experiment: MCF-7 Proliferation Assay; assay type: cell-based; conditions: Homo sapiens, MCF7; MCF-7 cells, 48 hours with drug, tritiated thymidine incorporation; read-out: ED50 (the source's name)
# Procedure: MCF-7 breast adenocarcinoma cells (ATCC HTB 22) were maintained in MEM (minimal essential medium, phenol red-free, Sigma, St. Louis, Mo.) supplimented with 10% fetal bovine serum (FBS) (V/V), L-glutamine (2 mM), sodium pyruvate (1 mM), HEPES {(N-[2-hydroxyethyl]piperazine-N′-[2-ethanesulfonic acid]10 mM}, non-essential amino acids and bovine insulin (1 ug/mL) (maintenance medium). Ten days prior to assay, MCF-7 cells were switched to maintenance medium supplemented with 10% dextran coated charcoal stripped fetal bovine serum (DCC-FBS) assay medium) in place of 10% FBS to deplete internal stores of steroids. MCF-7 cells were removed from maintenance flasks using cell dissociation medium (Ca++/Mg++ free HBSS (phenol red-free) supplemented with 10 mM HEPES and 2 mM EDTA). Cells were say medium and adjusted to 80,000 cells/mL. Approximately 100 μL (8,000 cells) were added to flat-bottom microculture wells (Costar 3596) and incubated at 37° C. in a 5% CO2 humidified incubator for 48 hours to allow for cell adherence and equilbration after transfer. Serial dilutions of drugs or DSMO as a diluent control were prepared in assay medium and 50 μL transferred to triplicate microcultures followed by 50 μL assay medium for a final volume of 200 μL. After an additional 48 hours at 37° C. in a 5% CO2 humidified incubator, microcultures were pulsed with tritiated thymidine (1 uCi/well) for 4 hours. Cultures were terminated by freezing at −70° C. for 24 hours followed by thawing and harvesting of microcultures using a Skatron Semiautomatic Cell Harvester. Samples were counted by liquid scintillation using a Wallac BetaPlace β counter. Results in Table 2 below show the ED50 for certain compounds of the present invention.
EC50 [1] [nM],SMILES,ED50 (Serum Cholesterol) [mg/kg],Serum Cholesterol ED50 (mg/kg) (Serum Cholesterol)
3,CSC(c1ccc(OCCN2CCCCC2)cc1)c1c(-c2ccc(O)cc2)sc2cc(O)ccc12 (centres unmarked) [Example 9],5.1,
10,CC(C)OC(c1ccc(OCCN2CCCCC2)cc1)c1c(-c2ccc(O)cc2)sc2cc(O)ccc12 (centres unmarked) [Example 4],4.1,
0.8,COC(c1ccc(OCCN2CCCCC2)cc1)c1c(-c2ccc(O)cc2)sc2cc(O)ccc12 (centres unmarked) [Example 1],3.5,
90,OCCNC(c1ccc(OCCN2CCCCC2)cc1)c1c(-c2ccc(O)cc2)sc2cc(O)ccc12 (centres unmarked) [Example 18],,N.A. at 10.0;
0.8,N#CC(c1ccc(OCCN2CCCCC2)cc1)c1c(-c2ccc(O)cc2)sc2cc(O)ccc12 (centres unmarked) [Example 13],0.8,
30,Oc1ccc(-c2sc3cc(O)ccc3c2C(c2ccc(OCCN3CCCCC3)cc2)N2CCCCCC2)cc1 (centres unmarked) [Example 17],10,
6,NC(c1ccc(OCCN2CCCCC2)cc1)c1c(-c2ccc(O)cc2)sc2cc(O)ccc12 (centres unmarked) [Example 14],5.7,
15,Oc1ccc(-c2sc3cc(O)ccc3c2C(c2ccc(OCCN3CCCCC3)cc2)N2CCCC2)cc1 (centres unmarked) [Example 16],10,
4,CNC(c1ccc(OCCN2CCCCC2)cc1)c1c(-c2ccc(O)cc2)sc2cc(O)ccc12 (centres unmarked) [Example 12],0.8,
20,OCCOC(c1ccc(OCCN2CCCCC2)cc1)c1c(-c2ccc(O)cc2)sc2cc(O)ccc12 (centres unmarked) [Example 8],2.9,
0.5,Oc1ccc(C2Sc3cc(O)ccc3C2C(OCc2ccccc2)c2ccc(OCCN3CCCCC3)cc2)cc1 (centres unmarked) [Example 6],10,
7,N#CCCOC(c1ccc(OCCN2CCCCC2)cc1)c1c(-c2ccc(O)cc2)sc2cc(O)ccc12 (centres unmarked) [Example 7],2.4,
1.5,CCCCOC(c1ccc(OCCN2CCCCC2)cc1)c1c(-c2ccc(O)cc2)sc2cc(O)ccc12 (centres unmarked) [Example 5],2.5,
2,CCCOC(c1ccc(OCCN2CCCCC2)cc1)c1c(-c2ccc(O)cc2)sc2cc(O)ccc12 (centres unmarked) [Example 3],10,
20,CN(C)C(c1ccc(OCCN2CCCCC2)cc1)c1c(-c2ccc(O)cc2)sc2cc(O)ccc12 (centres unmarked) [Example 11],0.1,
7,Oc1ccc(-c2sc3cc(O)ccc3c2C(NN2CCCCC2)c2ccc(OCCN3CCCCC3)cc2)cc1 (centres unmarked) [Example 20],10,
3,CCOC(c1ccc(OCCN2CCCCC2)cc1)c1c(-c2ccc(O)cc2)sc2cc(O)ccc12 (centres unmarked) [Example 2],10,
7,CCN(CC)C(c1ccc(OCCN2CCCCC2)cc1)c1c(-c2ccc(O)cc2)sc2cc(O)ccc12 (centres unmarked) [Example 15],3.8,

SMILES,EC50 [1] [nM],ED50 (Serum Cholesterol) [mg/kg],Serum Cholesterol ED50 (mg/kg) (Serum Cholesterol)
CCSC(c1ccc(OCCN2CCCCC2)cc1)c1c(-c2ccc(O)cc2)sc2cc(O)ccc12 (centres unmarked) [Example 10],1.2,1.7,
